Assay results: patent US9884832B2 (priority 2011, dated 2018)

The compounds below were run against AM2 S31N (serine→asparagine mutation at residue 31 in the M2 protein) (Influenza A virus, UniProt P0DOF5, S31N). Conditions: not given.
Type: cell-based, influenza virus A/Udorn/72
For `CCOc1ccc(CNC23CC4CC(CC(C4)C2)C3)cc1` [Example 1a, Adamantan-1-yl-(4-ethoxy-benzyl)-amine], the “S31N OOcyte Inhibition at 100 uM (%)” value was “A (key: (A)=31-95%; (B)=0-30%)”. In the case of `F[B-](F)(F)c1ccc(CNC23CC4CC(CC(C4)C2)C3)cc1.[K+]` [Example 2a], the “S31N OOcyte Inhibition at 100 uM (%)” value is reported as “B (key: (A)=31-95%; (B)=0-30%)”. For `Brc1cccc(CNC23CC4CC(CC(C4)C2)C3)c1` [Example 3a, N-(3-Bromobenzyl)adamantan-1-amine], the “S31N OOcyte Inhibition at 100 uM (%)” value was “B (key: (A)=31-95%; (B)=0-30%)”. `c1ccc(-c2nc(CNC34CC5CC(CC(C5)C3)C4)cs2)cc1` [Example 132a, N-((2-phenylthiazol-4-yl)methyl)adamantan-1-amine] was tested, and the “S31N OOcyte Inhibition at 100 uM (%)” value was “B (key: (A)=31-95%; (B)=0-30%)”. For `c1cncc(-c2noc(CNC34CC5CC(CC(C5)C3)C4)n2)c1` [Example 135a, Adamantan-1-yl-(3-pyridin-3-yl-[1,2,4]oxadiazol-5-ylmethyl)-amine], the “S31N OOcyte Inhibition at 100 uM (%)” value was “A (key: (A)=31-95%; (B)=0-30%)”. `c1csc(-c2ccc(CNC34CC5CC(CC(C5)C3)C4)o2)c1` [Example 138a, Adamantan-1-yl-(5-thiophen-2-yl-furan-2-ylmethyl)-amine] was tested, and the “S31N OOcyte Inhibition at 100 uM (%)” value was “A (key: (A)=31-95%; (B)=0-30%)”. In the case of `Cc1oc(-c2cccs2)nc1CNC12CC3CC(CC(C3)C1)C2` [Example 145a, N-((5-methyl-2-(thiophen-2-yl)oxazol-4-yl)methyl)adamantan-1-amine], the “S31N OOcyte Inhibition at 100 uM (%)” value is reported as “B (key: (A)=31-95%; (B)=0-30%)”. With `c1csc(-c2nc(CNC34CC5CC(CC(C5)C3)C4)no2)c1` [Example 146a, N-((5-(thiophen-2-yl)-1,2,4-oxadiazol-3-yl)methyl)adamantan-1-amine] the “S31N OOcyte Inhibition at 100 uM (%)” value was “A (key: (A)=31-95%; (B)=0-30%)”. In the case of `c1csc(-c2nnc(CNC34CC5CC(CC(C5)C3)C4)o2)c1` [Example 147a, Adamantan-1-yl-(5-thiophen-2-yl-[1,3,4]oxadiazol-2-ylmethyl)-amine], the “S31N OOcyte Inhibition at 100 uM (%)” value is reported as “A (key: (A)=31-95%; (B)=0-30%)”. With `c1csc(-c2noc(CNC34CC5CC(CC(C5)C3)C4)n2)c1` [Example 148a, N-((3-(thiophen-2-yl)-1,2,4-oxadiazol-5-yl)methyl)adamantan-1-amine] the “S31N OOcyte Inhibition at 100 uM (%)” value was “A (key: (A)=31-95%; (B)=0-30%)”. For `c1csc(-c2cc(CNC34CC5CC(CC(C5)C3)C4)on2)c1` [Example 149a, N-((3-(thiophen-2-yl)isoxazol-5-yl)methyl)adamantan-1-amine], the “S31N OOcyte Inhibition at 100 uM (%)” value was “A (key: (A)=31-95%; (B)=0-30%)”. `c1cc(-c2cc(CNC34CC5CC(CC(C5)C3)C4)no2)cs1` [Example 150a, Adamantan-1-yl-(5-thiophen-3-yl-isoxazol-3-ylmethyl)-amine] was tested, and the “S31N OOcyte Inhibition at 100 uM (%)” value was “A (key: (A)=31-95%; (B)=0-30%)”. For `c1csc(-c2nnc(CNC34CC5CC(CC(C5)C3)C4)s2)c1` [Example 151a, N-((5-(thiophen-2-yl)-1,3,4-thiadiazol-2-yl)methyl)adamantan-1-amine], the “S31N OOcyte Inhibition at 100 uM (%)” value was “A (key: (A)=31-95%; (B)=0-30%)”. For `c1coc(-c2nc(CNC34CC5CC(CC(C5)C3)C4)no2)c1` [Example 160a, N-((5-(furan-2-yl)-1,2,4-oxadiazol-3-yl)methyl)adamantan-1-amine], the “S31N OOcyte Inhibition at 100 uM (%)” value was “A (key: (A)=31-95%; (B)=0-30%)”. `c1cn(-c2ccc(CNC34CC5CC(CC(C5)C3)C4)s2)cn1` [Example 161a, N-((5-(1H-imidazol-1-yl)thiophen-2-yl)methyl)adamantan-1-amine] was tested, and the “S31N OOcyte Inhibition at 100 uM (%)” value was “B (key: (A)=31-95%; (B)=0-30%)”. With `Fc1ccc(-c2nc(CNC34CC5CC(CC(C5)C3)C4)no2)cc1` [Example 163a] the “S31N OOcyte Inhibition at 100 uM (%)” value was “A (key: (A)=31-95%; (B)=0-30%)”. `c1ccc(-c2cc(CNC34CC5CC(CC(C5)C3)C4)on2)cc1` [Example 164a] was tested, and the “S31N OOcyte Inhibition at 100 uM (%)” value was “A (key: (A)=31-95%; (B)=0-30%)”. `CCc1nc(CNC23CC4CC(CC(C4)C2)C3)no1` [Example 165a] was tested, and the “S31N OOcyte Inhibition at 100 uM (%)” value was “A (key: (A)=31-95%; (B)=0-30%)”. With `C(NC12CC3CC(CC(C3)C1)C2)c1noc(C2CC2)n1` [Example 166a] the “S31N OOcyte Inhibition at 100 uM (%)” value was “A (key: (A)=31-95%; (B)=0-30%)”. In the case of `c1ccc(C2=NOC(CNC34CC5CC(CC(C5)C3)C4)C2)cc1` (stereo not drawn) [Example 167a, N-((3-phenyl-4,5-dihydroisoxazol-5-yl)methyl)adamantan-1-amine], the “S31N OOcyte Inhibition at 100 uM (%)” value is reported as “A (key: (A)=31-95%; (B)=0-30%)”. For `c1csc(C2=NOC(CNC34CC5CC(CC(C5)C3)C4)C2)c1` (stereo not drawn) [Example 168a, N-((3-(thiophen-2-yl)-4,5-dihydroisoxazol-5-yl)methyl)adamantan-1-amine], the “S31N OOcyte Inhibition at 100 uM (%)” value was “A (key: (A)=31-95%; (B)=0-30%)”. In the case of `Clc1cc2cc(CNC34CC5CC(CC(C5)C3)C4)sc2s1` [Example 173a, Adamantan-1-yl-(5-chloro-thieno[2,3-b]thiophen-2-ylmethyl)-amine], the “S31N OOcyte Inhibition at 100 uM (%)” value is reported as “A (key: (A)=31-95%; (B)=0-30%)”. `Cn1c(CNC23CC4CC(CC(C4)C2)C3)nc2ccccc21` [Example 180a, Adamantan-1-yl-(1-methyl-1H-benzoimidazol-2-ylmethyl)-amine] was tested, and the “S31N OOcyte Inhibition at 100 uM (%)” value was “B (key: (A)=31-95%; (B)=0-30%)”. For `Clc1ccc2[nH]c(CNC34CC5CC(CC(C5)C3)C4)nc2c1` [Example 181a, Adamantan-1-yl-(5-chloro-1H-benzoimidazol-2-ylmethyl)-amine], the “S31N OOcyte Inhibition at 100 uM (%)” value was “A (key: (A)=31-95%; (B)=0-30%)”. In the case of `COc1ccc2[nH]c(CNC34CC5CC(CC(C5)C3)C4)cc2c1` [Example 182a], the “S31N OOcyte Inhibition at 100 uM (%)” value is reported as “A (key: (A)=31-95%; (B)=0-30%)”. With `Clc1cccc2cc(CNC34CC5CC(CC(C5)C3)C4)sc12` [Example 183a, Adamantan-1-yl-(7-chloro-benzo[b]thiophen-2-ylmethyl)-amine] the “S31N OOcyte Inhibition at 100 uM (%)” value was “B (key: (A)=31-95%; (B)=0-30%)”. In the case of `Cc1cccc2nc(CNC34CC5CC(CC(C5)C3)C4)[nH]c12` [Example 184a, Adamantan-1-yl-(7-methyl-1H-benzoimidazol-2-ylmethyl)-amine], the “S31N OOcyte Inhibition at 100 uM (%)” value is reported as “A (key: (A)=31-95%; (B)=0-30%)”. For `OC12CC3CC(C1)CC(NCc1ccc(Cl)s1)(C3)C2` [Example 189a, 3-[(5-Chloro-thiophen-2-ylmethyl)-amino]adamantan-1-ol], the “S31N OOcyte Inhibition at 100 uM (%)” value was “B (key: (A)=31-95%; (B)=0-30%)”. In the case of `COC(=O)c1ccc(-c2ccc(CNC34CC5CC(CC(O)(C5)C3)C4)cc2)cc1` [Example 190a, 4′-[(3-Hydroxy-adamantan-1-ylamino)-methyl]-biphenyl-4-carboxylic acid methyl ester], the “S31N OOcyte Inhibition at 100 uM (%)” value is reported as “A (key: (A)=31-95%; (B)=0-30%)”. `OC12CC3CC(C1)CC(NCc1cc4sccc4s1)(C3)C2` [Example 192a, 3-[(Thieno[3,2-b]thiophen-2-ylmethyl)-amino]-adamantan-1-ol] was tested, and the “S31N OOcyte Inhibition at 100 uM (%)” value was “A (key: (A)=31-95%; (B)=0-30%)”. For `C[Si](C)(C)c1ccc(CNC23CC4CC(CC(O)(C4)C2)C3)cc1` [Example 193a, (1s,3r,5R,7S)-3-((4-(trimethylsilyl)benzyl)amino)adamantan-1-ol], the “S31N OOcyte Inhibition at 100 uM (%)” value was “A (key: (A)=31-95%; (B)=0-30%)”. In the case of `OC12CC3CC(C1)CC(NCc1cc(-c4ccccc4)on1)(C3)C2` [Example 194a, (1s,3r,5R,7S)-3-(((5-phenylisoxazol-3-yl)methyl)amino)adamantan-1-ol], the “S31N OOcyte Inhibition at 100 uM (%)” value is reported as “A (key: (A)=31-95%; (B)=0-30%)”. In the case of `OC12CC3CC(C1)CC(NCc1cc4cc(Br)sc4s1)(C3)C2` [Example 195a, 3-[(5-Bromo-thieno[2,3-b]thiophen-2-ylmethyl)-amino]-adamantan-1-ol], the “S31N OOcyte Inhibition at 100 uM (%)” value is reported as “A (key: (A)=31-95%; (B)=0-30%)”. `Oc1ccc(CNC23CC4CC(CC(O)(C4)C2)C3)c(O)c1` [Example 196a, 4-[(3-Hydroxy-adamantan-1-ylamino)-methyl]-benzene-1,3-diol] was tested, and the “S31N OOcyte Inhibition at 100 uM (%)” value was “A (key: (A)=31-95%; (B)=0-30%)”. With `COc1ccc2nc(CN(Cc3nc4ccc(OC)cc4[nH]3)C34CC5CC(CC(C5)C3)C4)[nH]c2c1` [Example 201a, Adamantan-1-yl-bis-(6-methoxy-1H-benzoimidazol-2-ylmethyl)-amine] the “S31N OOcyte Inhibition at 100 uM (%)” value was “B (key: (A)=31-95%; (B)=0-30%)”. With `Cc1ncc(CN(Cc2cnc(C)s2)C23CC4CC(CC(C4)C2)C3)s1` [Example 202a, N,N-bis((2-methylthiazol-5-yl)methyl)adamantan-1-amine] the “S31N OOcyte Inhibition at 100 uM (%)” value was “B (key: (A)=31-95%; (B)=0-30%)”.

Same assay, conditions: pH 5.5
For `c1ncc(CCNCC23CC4CC(CC(C4)C2)C3)[nH]1` [Example 1, Adamantan-1-ylmethyl-[2-(3H-imidazol-4-yl)-ethyl]-amine], the “S31N OOcyte Inhibition at 100 uM (%)” value was “B (key: (A)=31-95%; (B)=0-30%)”. With `OCC(Cc1cnc[nH]1)NCC12CC3CC(CC(C3)C1)C2` (stereo not drawn) [Example 2, 2-[(adamantan-1-ylmethyl)-amino]-3-(3H-imidazol-4-yl)-propan-1-ol] the “S31N OOcyte Inhibition at 100 uM (%)” value was “B (key: (A)=31-95%; (B)=0-30%)”. `COC(=O)C(Cc1cnc[nH]1)NCC12CC3CC(CC(C3)C1)C2` (stereo not drawn) [Example 3, 2-[(Adamantan-1-ylmethyl)-amino]-3-(3H-imidazol-4-yl)-propionic acid methyl ester] was tested, and the “S31N OOcyte Inhibition at 100 uM (%)” value was “B (key: (A)=31-95%; (B)=0-30%)”.

What follows are compounds tested against AM2 V27A (valine→alanine mutation at residue 27 in the M2 protein) (Influenza A virus, UniProt P0DOF5, V27A). Conditions: not given.
Type: cell-based, influenza virus A/Udorn/72
With `CCOc1ccc(CNC23CC4CC(CC(C4)C2)C3)cc1` [Example 1a, Adamantan-1-yl-(4-ethoxy-benzyl)-amine] the “V27A OOcyte Inhibition at 100 uM (%)” value was “B (key: (A)=31-95%; (B)=0-30%)”. For `F[B-](F)(F)c1ccc(CNC23CC4CC(CC(C4)C2)C3)cc1.[K+]` [Example 2a], the “V27A OOcyte Inhibition at 100 uM (%)” value was “A (key: (A)=31-95%; (B)=0-30%)”. In the case of `Brc1cccc(CNC23CC4CC(CC(C4)C2)C3)c1` [Example 3a, N-(3-Bromobenzyl)adamantan-1-amine], the “V27A OOcyte Inhibition at 100 uM (%)” value is reported as “B (key: (A)=31-95%; (B)=0-30%)”.

Same assay, conditions: pH 5.5
For `c1ncc(CCNCC23CC4CC(CC(C4)C2)C3)[nH]1` [Example 1, Adamantan-1-ylmethyl-[2-(3H-imidazol-4-yl)-ethyl]-amine], the “V27A OOcyte Inhibition at 100 uM (%)” value was “B (key: (A)=31-95%; (B)=0-30%)”. In the case of `OCC(Cc1cnc[nH]1)NCC12CC3CC(CC(C3)C1)C2` (stereo not drawn) [Example 2, 2-[(adamantan-1-ylmethyl)-amino]-3-(3H-imidazol-4-yl)-propan-1-ol], the “V27A OOcyte Inhibition at 100 uM (%)” value is reported as “B (key: (A)=31-95%; (B)=0-30%)”. In the case of `COC(=O)C(Cc1cnc[nH]1)NCC12CC3CC(CC(C3)C1)C2` (stereo not drawn) [Example 3, 2-[(Adamantan-1-ylmethyl)-amino]-3-(3H-imidazol-4-yl)-propionic acid methyl ester], the “V27A OOcyte Inhibition at 100 uM (%)” value is reported as “B (key: (A)=31-95%; (B)=0-30%)”.
